Laboratory results from US20120264231A1, “ASSAY FOR ORAI CALCIUM CHANNEL REGULATORS” (IMMUNE DISEASE INSTITUTE, INC., priority 2009, published 2012).
Read-outs that look alike come from different tables or passages of the source.

Assays:
[1] = biological target: human ORAI3 (Homo sapiens, UniProt Q9BRQ5); conditions: for ^45Ca^2+ uptake (cpm): 75 μM 2-APB
Experimental: (§1) Human ORAI3 was expressed in P. pastoris as described below. Then ^45Ca^2+ uptake was measured in a suspension of P. pastoris cells expressing ORAI3, after addition of 2-aminoethoxydiphenyl borate (2-APB), a compound known to activate ORAI3 expressed in mammalian cells.
Individual colonies were picked, and ORAI3 protein expression was induced by growth for eight hours in MMY medium (containing 0.5% methanol), whose formulation is given below. Cells were collected by centrifugation, and disrupted by vortexing in an Eppendorf tube with 0.5 mm glass beads. Beads, unbroken cells, and debris were removed by centrifugation at 5000 rpm in a benchtop centrifuge. The supernatant from that centrifugation was centrifuged at 100,000×g to pellet cell membranes. Cell membranes were resuspended, protein concentrations determined by Lowry or Bradford assay, and an equal amount of protein from each sample subjected to SDS-polyacrylamide gel electrophoresis and western blotting. The relative levels of Myc-ORAI3 expressed by individual colonies were compared by western blotting with antibody to the Myc tag. Colonies expressing relatively high levels of ORAI3 protein were used for the ^45Ca^2+ uptake assay.
(§2) • Streaked out Pichia glycerol stock on RDB-plate • Grew 2-5 days at 30° C. (until colonies are large enough to easily remove) Seeded 5 mL MGY medium with 1 colony • Grew 2 days in 50 mL Falcon tube (cap partially unscrewed but taped on to allow aeration), 250 rpm, 30° C. • Seeded 50 mL MGY with the 5 mL culture (use a yeast-specific baffled flask; if scaled up, the volume of the culture was 1/10th the volume of the flask) • Grew o/n, 30° C., 250 rpm • At OD ˜2-3, spun down, checked OD and resuspended in MMY at an approximate OD of 6 (i.e., 6×5E7 cells/mL) • Grew 4 h at 28.5° C., 250 rpm, 28.5° C., with the top of the flask covered in gauze (not foil or a lid—a lot of aeration needed for induction. The temperature was under 30° C.) • Measured OD • Washed 3×25 mL in Solution A • Resuspended in Solution A for a final OD of 2 (1×10^8 cells/mL)
• (Prepared everything else: 1 μCi/μL ^45CaCl2, 1 mL Solution S aliquots in tubes that can hold at least 2 mL, tips, etc.) • Spun sample (either 1 mL or the multiple-mL timepoint aliquot) down at 2000×g and resuspended in an equal volume of Solution C • (where applicable, added 2-APB or other things such as Solution S or lanthanum here. 75 μM 2-APB with Orai3.) • Added 1 μCi ^45CaCl2/Ml • Incubated as appropriate • When timepoint was taken, 1 mL sample (gently pipetted up and down, since Pichia settle) and added to 1 mL Solution S • Collected all samples • (This was repeated for each sample.) Presoaked 2.5 cm Whatman GF/F filter in place on the filter apparatus with 1 mL Solution S • Added the 2 mL sample/Solution S mix to the column • Turned on the vacuum and wash 3×15 mL with Solution W • Let filter dry under vacuum & removed to scintillation vial • Placed filter flat on the bottom of the vial, yeast-side up • Carefully added scintillation fluid • Counted in scintillation counter (^45Ca settings, if possible: window is 0-750, quench curve calibrations)

[2] = tested on: P pastoris cells that were not engineered to express ORAI3
Experimental: as §1
as §2, with “(1×10^8 cells/mL) […]” for “(1×10^8 cells/mL)”

[3] = biological target: ORAI1 (E106Q) (Homo sapiens, UniProt Q96D31, E106Q); assay: Tb3+ luminescence resonance energy transfer, lanthanide binding to ORAI1; parameters: Human ORAI1 (65-301) with an N-terminal FLAG tag was subcloned into the pPIC3.5K vector; made in house; host or cells: Pichia pastoris (membranes)
Chain of ORAI1 (E106Q) (Q96D31 65-301 E106Q): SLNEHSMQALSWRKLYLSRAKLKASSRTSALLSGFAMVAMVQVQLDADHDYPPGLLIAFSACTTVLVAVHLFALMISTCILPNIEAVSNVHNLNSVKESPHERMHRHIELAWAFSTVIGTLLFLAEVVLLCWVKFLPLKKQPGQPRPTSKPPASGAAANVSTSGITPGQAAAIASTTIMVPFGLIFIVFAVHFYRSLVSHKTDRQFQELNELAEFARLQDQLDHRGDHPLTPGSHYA
Experimental: Tb3+ luminescence resonance energy transfer (Tb3+-LRET) experiments were performed on a FluoroLog®-3 spectrofluorometer (HORIBA Scientific) with a 1-cm lengthpath cuvette at ambient temperature. Emission spectra were collected from 500 to 600 nm with the excitation set at 282 nm, or at 295 nm to minimize the contribution from tyrosine. The slit widths for excitation and emission were set at 4 nm and 8 nm, respectively. A glass filter with cutoff of ˜320 nm was used to circumvent light scattering. […] Spectra from membranes lacking ORAI1, with the same total membrane protein content, served as negative control.
In each case, a scan of luminescence emission from membrane suspension alone was obtained, then Tb3+ was added into the cuvette and a second scan was performed (FIG. 12). Protein content of the two samples was the same. The presence of equivalent amounts of membrane microsomes was also evidenced by identical light scattering in the two cases prior to addition of Tb3+. Characteristic Tb3+ emission peaks at 547 nm and 589 nm were prominent in the ORAI sample, attributable to energy transfer from one or more of the native tryptophan residues of the protein.

[4] = biological target: endogenous CRAC channels (ORAI1) of STIM1-/- murine T cells (mouse) (UniProt Q8BWG9); assay: cell-based or functional assay
Chain of endogenous CRAC channels (ORAI1) of STIM1-/- murine T cells (mouse) (Q8BWG9 whole entry, the tested form may be a part): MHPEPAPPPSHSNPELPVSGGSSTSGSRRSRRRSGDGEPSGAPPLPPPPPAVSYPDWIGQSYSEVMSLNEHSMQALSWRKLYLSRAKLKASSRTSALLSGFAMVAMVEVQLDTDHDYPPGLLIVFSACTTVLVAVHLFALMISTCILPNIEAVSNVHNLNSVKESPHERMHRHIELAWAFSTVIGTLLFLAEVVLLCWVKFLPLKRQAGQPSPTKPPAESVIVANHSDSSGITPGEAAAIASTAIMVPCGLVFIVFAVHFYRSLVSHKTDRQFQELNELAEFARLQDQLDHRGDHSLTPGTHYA

[5] = tested on: STIM1−/− T cells; assay: Single-cell [Ca2+]i measurement in STIM1−/− T cells expressing STIM1 fragments; type: cell-based, murine
Description: To determine the competence of STIM 1 fragments to activate ORAI1 in mammalian cells, Myc-tagged STIM 1^CT and its truncated variants were introduced by retroviral expression into STIM1−/− T cells, and their ability to elevate resting Ca^2+ permeability was examined in cells loaded with Fura-2. As in human Jurkat T cells (Huang, G. N., et al., (2006); supra), expression of the soluble cytoplasmic portion of STIM 1 activated Ca^2+ influx into STIM1−/− murine T cells (FIG. 11). Elevated Ca^2+ permeability was evident in a marked increase in cytoplasmic [Ca^2+] on changing to medium containing 2 mM Ca^2+ after brief exposure to nominally Ca^2+-free medium. […] Retroviral vector alone conferred no constitutive influx above the level in control cells, as previously shown (Oh-hora, M., et al., (2008), supra).
Retroviral expression plasmids encoding mouse STIM 1 and its cytoplasmic fragments (residues 233-685, 233-600, 233-498, or 233-463) were constructed by inserting the corresponding coding sequences between the XhoI and EcoRI sites of the vector pMSCV-CITE-eGFP-PGK-Puro (Clontech), which allows for coexpression of the inserted gene, GFP, and a puromycin resistance gene. GFP expression was used to estimate transducing efficiency.
Primary CD4^+ cells were purified from spleen and lymph nodes of Stim1^f1/f1 CD4-Cre^+ mice using Dynal magnetic beads (Invitrogen) following the manufacturer's instructions. Purified T cells were stimulated with anti-CD3 and anti-CD28, transduced with retroviruses obtained from transfected Phoenix packaging cells, and further expanded in IL-2-containing medium as described (Oh-hora, M., et al., Nat Immunol 9, 432-443 (2008); Ansel, K. M., et al., Nat Immunol 5, 1251-1259 (2004)). The transduction efficiency (>80%) was estimated by evaluating GFP expression using flow cytometry.
Retrovirus-transduced CD4^+ cells isolated from Stim1^f1/f1 CD4-Cre^+ mice were incubated overnight in IL-2 free RPMI medium and loaded with 2 μM Fura-2-acetoxylmethyl ester (Invitrogen) for 45 min at ambient temperature in the dark. T cells were further attached to coverslips precoated with 0.01% poly-L-lysine, mounted to a RC-20 closed-bath flow chamber (Warner Instrument), and bathed in Ringer's solution (155 mM NaCl, 4.5 mM KCl, 2 mM CaCl2, 1 mM MgCl2, 10 mM D-glucose and 5 mM HEPES, pH 7.4). For nominally Ca^2+-free Ringer's solution CaCl2 was replaced with MgCl2. After 5 minutes of equilibration in Ringer's solution, [Ca^2+]i measurement commenced with ˜3 min perfusion of T cells with Ca^2+-free Ringer's solution at ambient temperature, followed by perfusion of Ringer's solution containing 2 mM CaCl2. The cycle was repeated once with final addition of Ringer's solution supplemented with 2 μM LaCl3 to block Ca^2+ flux. Images were acquired using a Zeiss Axiovert S200 epifluorescence microscope and OpenLab imaging analysis software (Improvision). The fluorescence data (F340 nm/F380 nm) were collected every 4 s and analyzed as described (Oh-hora, M., et al., (2008), supra; Feske, S., et al., Nature 441, 179-185 (2006)). In each experiment, for each experimental condition, 50-100 GFP-positive CD4+ T cells were analyzed.

Compound: NCCOB(c1ccccc1)c1ccccc1 [2-APB, 2-aminoethoxydiphenyl borate]
- rate and extent of ^45Ca^2+ uptake ([1]; 75 μM 2-APB versus control suspensions without 2-APB): increased
- ^45Ca^2+ uptake (cpm) ([1]; 0.5 min): 2729.9 cpm
- ^45Ca^2+ uptake (cpm) ([1]; 1 min): 3137.3 cpm
- ^45Ca^2+ uptake (cpm) ([1]; 2 min): 4662.1 cpm
- ^45Ca^2+ uptake (cpm) ([1]; 4 min): 6019.2 cpm
- ^45Ca^2+ uptake (cpm) ([1]; ~0.25 min): 1913.5 cpm
- effect on ^45Ca^2+ uptake [2]: did not have this effect

Compound: [Tb+3] [Tb3+]
- Tb3+ emission peaks at 547 nm and 589 nm ([3]; Pichia membranes containing ORAI1 (E106Q), Tb3+ 10-50 μM): prominent
- Tb3+-LRET signal ([3]; solubilized ORAI1): specific Tb3+-LRET signal

Compound: Myc-tagged STIM1^CT (mouse STIM1 233-685) expressed by retrovirus in STIM1-/- T cells (from UniProt P70302 233-685)
- steepest rise of cytoplasmic [Ca^2+] (Fura-2, single cells) [4]: 15 nM/s

Compound: [Cl][La]([Cl])[Cl] [La^3+, LaCl3, reference compound]
- cytoplasmic [Ca^2+] upon exposure to La^3+ ([5]; 2 μM LaCl3, continuing presence of external Ca^2+): rapid decline

Compound: STIM1 (233-600): truncated mouse STIM1 cytoplasmic fragment, residues 233-600
- maximum levels of cytoplasmic Ca^2+ ([5]; compared with STIM1^CT): somewhat less than with STIM1^CT
- rate of rise of cytoplasmic Ca^2+ ([5]; compared with STIM1^CT): nearly comparable to the rate with STIM 1^CT
- constitutive Ca^2+ influx ([5]; retroviral expression, Fura-2): activated a prominent constitutive Ca^2+ influx
